Earlier results in patent US6432453B1, “Dietary supplement containing glycerol ester of conjugated linoleic acid and rosemary extract containing carnosic acid” (Metagenics, Inc., priority 2000, dated 2002).
Like-named read-outs stand apart in the source and are kept apart here.

Assays:
[1] = CLA-supplemented subjects, three months, no change of diet
[2] = free fatty acid form

## conjugated linoleic acid [CLA]
[1]
  body fat lost: up to 20%
[2]; 25° C.
  half-life (oxidation): 336 h
[2]; 75° C.
  half-life (oxidation): 7 h
